The test system of one experiment is SK-OV-3. In words: Cytotoxicity against human SKOV3 cells by SRB assay. Format: functional. A general note: Sulforhodamine B stains cellular protein and so reports cell mass.
A further experiment deals with DU-145. In words: Cytotoxicity against human DU145 cells by SRB assay. The format is functional.
The next experiment deals with NCI-H460. The experiment is described as follows: Cytotoxicity against human NCI-H460 cells by SRB assay. Format: functional.
Experiment [1] in a line: Inhibition of tubulin polymerization in bovine brain after 20 mins by spectrophotometry. Also on record: species or system Bos taurus.

In general, GI50 refers to the concentration giving 50% growth inhibition. For orientation: IC50 means the concentration that inhibits the measured activity by half. A higher IC50 goes with lower potency.

In the case of `COc1ccc(/C=C/c2cc(OC)c(OC)c(OC)c2)c(OP(=O)(O)O)c1O`, the figures for the GI50 with SK-OV-3, in the experiment with DU-145 and in the experiment with NCI-H460 were 465 nM, 2130 nM and 1550 nM, respectively.
With `COc1ccc(/C=C\c2cc(OC)c(OC)c(OC)c2)c(O)c1O` [COMBRETASTATIN A-1], the figures for the concentration for 50% growth inhibition (GI50) in the experiment with SK-OV-3, in the experiment with DU-145 and in the experiment with NCI-H460 were 38.4 nM, 32.6 nM and 15.3 nM, respectively. Moreover, 1.9 µM corresponded to half-maximal inhibition in experiment [1] (IC50).
With `COc1ccc(/C=C/c2cc(OC)c(OC)c(OC)c2)c(O)c1O`, the concentration for 50% growth inhibition (GI50) is 2270 nM with SK-OV-3, 2140 nM in the experiment with DU-145 and 1320 nM with NCI-H460. The compound also displayed a half-maximal inhibitory concentration (IC50) in experiment [1] of 11 µM.
For `COc1cc(/C=C\c2ccc(OC)c(OP(=O)(O)O)c2O)cc(OC)c1OC`, the GI50 worked out at 2.6 nM in the experiment on SK-OV-3, 15.5 nM with DU-145 and 33.4 nM in the experiment with NCI-H460. Moreover, in experiment [1], the IC50 is > 40 µM.
In the same order, the values of `COc1ccc(/C=C\c2cc(OC)c(OC)c(OC)c2)c(OP(=O)(O)O)c1O` are 1.64 nM, 2.77 nM, 3.56 nM and > 40 µM.
On to `COc1cc(/C=C\c2ccc(OC)c(OP(=O)(O)O)c2OP(=O)(O)O)cc(OC)c1OC`, for which the GI50 worked out at 1.03 nM in the experiment on SK-OV-3, 2.87 nM with DU-145 and 13.3 nM in the experiment on NCI-H460. Besides, the IC50 in experiment [1] is > 40 µM.
In the case of `COc1cc(/C=C/c2ccc(OC)c(OP(=O)(O)O)c2O)cc(OC)c1OC`, the GI50 came to 681 nM in the experiment on SK-OV-3, 520 nM with DU-145 and 336 nM in the experiment on NCI-H460.
